`CC(C)[C@H](C(=O)NO)N(Cc1cccnc1)S(=O)(=O)c1ccccc1Cl` showed a logP of 1.45.

With `CC(C)C(C(=O)NO)N(Cc1cccnc1)S(=O)(=O)c1ccc(Br)cc1` (configuration not stated), the logP was 1.91.

For `CC(C)[C@H](C(=O)NO)N(Cc1cccnc1)S(=O)(=O)c1ccc(I)cc1`, the lipophilicity (logP) was found to be 2.45.

Compound `CONC(=O)C(C(C)C)N(Cc1cccnc1)S(=O)(=O)c1ccc(I)cc1` (configuration not stated) came in with a log partition coefficient (logP) of 3.11.

`CONC(=O)[C@@H](C(C)C)N(Cc1cccnc1)S(=O)(=O)c1ccccc1F` displayed a logP of 2.67.

In turn, `CC(C)[C@H](C(=O)NO)N(Cc1cccnc1)S(=O)(=O)c1cccc(Cl)c1` returned a logP of 1.82.

`CONC(=O)[C@@H](C(C)C)N(Cc1cccnc1)S(=O)(=O)c1ccccc1Cl`: the logP turned out to be 2.01.

With `CONC(=O)[C@@H](C(C)C)N(Cc1cccnc1)S(=O)(=O)c1ccccc1Br`, the logP is 3.34.

In the case of `CONC(=O)[C@@H](C(C)C)N(Cc1cccnc1)S(=O)(=O)c1ccc(Br)cc1`, the logP stood at 2.51.

As for `CC(C)C(C(=O)NO)N(Cc1cccnc1)S(=O)(=O)c1ccccc1Br` (configuration not stated), the logP turned out to be 1.54.

Compound `CONC(=O)[C@@H](C(C)C)N(Cc1cccnc1)S(=O)(=O)c1ccc(F)cc1` returned a logP of 2.

The compound `CONC(=O)[C@@H](C(C)C)N(Cc1cccnc1)S(=O)(=O)c1ccc(Cl)cc1` displayed a log partition coefficient (logP) of 2.4.

`CONC(=O)[C@@H](C(C)C)N(Cc1cccnc1)S(=O)(=O)c1cccc(Cl)c1`: the logP turned out to be 2.38.

The compound `CC(C)[C@H](C(=O)NO)N(Cc1cccnc1)S(=O)(=O)c1ccc(F)cc1` registered a logP of 1.4.

`CC(C)[C@H](C(=O)NO)N(Cc1cccnc1)S(=O)(=O)c1ccc(Cl)cc1`: the logP was found to be 1.81.

On to `CC(C)[C@H](C(=O)NO)N(Cc1cccnc1)S(=O)(=O)c1ccccc1F`, for which the logP was 1.65.

Take `CC(C)[C@H](C(=O)NO)N(Cc1cccnc1)S(=O)(=O)c1cccc(Br)c1`: the lipophilicity (logP) was found to be 1.92.

Values taken from the SangsterLogP compilation.
